Laboratory results: patent US9695155B2, “Herbicidal substituted pyrimidinyloxy benzene compounds” (E. I. DU PONT DE NEMOURS AND COMPANY, priority 2013, dated 2017)

Tests used:
[1] = test system: johnsongrass; assay: Test E preemergence; type: in vivo, Sorghum halepense; settings: for Johnsongrass plant response rating: scale 0 to 100 (0 no effect, 100 complete control)
Outline: (§1)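 Response was scored visually on a 0-100 scale (100 = complete control) versus controls after 14 to 21 days in the greenhouse. Test chemicals, formulated with surfactant in a non-phytotoxic solvent mixture, had been applied preemergence to seeds in silt loam soil or postemergence to 1- to 4-leaf plants in potting medium.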

[2] = test system: lambsquarters; assay: Test E preemergence; type: in vivo, Chenopodium album; settings: for Lambsquarters plant response rating: scale 0 to 100 (0 no effect, 100 complete control)
Text: (§2) Seeds of plant species selected from corn (Zea mays), soybean (Glycine max), velvetleaf (Abutilon theophrasti), lambsquarters (Chenopodium album), wild poinsettia (Euphorbia heterophylla), palmer pigweed (Amaranthus palmeri), waterhemp (common waterhemp, Amaranthus rudis), surinam grass (Brachiaria decumbens), large (Lg) crabgrass (Digitaria sanguinalis), Brazilian crabgrass (Digitaria horizontalis), fall panicum (Panicum dichotomiflorum), giant foxtail (Setaria faberii), green foxtail (Setaria viridis), goosegrass (Eleusine indica), johnsongrass (Sorghum halepense), ragweed (common ragweed, Ambrosia elatior), barnyardgrass (Echinochloa crus-galli), sandbur (southern sandbur, Cenchrus echinatus), arrowleaf sida (Sida rhombifolia), Italian ryegrass (Lolium multiflorum), dayflower (Virginia (VA) dayflower, Commelina virginica), field bindweed (Convolvulus arvensis), morningglory (Ipomoea coccinea), nightshade (eastern black nightshade, Solanum ptycanthum), kochia (Kochia scoparia), yellow nutsedge (Cyperus esculentus), cocklebur (common cocklebur, Xanthium strumarium), smartweed (ladysthumb smartweed, and hairy beggarticks (Bidens pilosa), were planted into a silt loam soil and treated preemergence with test chemicals formulated in a non-phytotoxic solvent mixture which included a surfactant.
(§3) At the same time, plants from these crop and weed species and also horseweed (Canada horseweed, Conyza canadensis), waterhemp_RES1, (ALS & Triazine resistant common waterhemp, Amaranthus rudis), and waterhemp_RES2, (ALS & HPPD resistant common waterhemp, Amaranthus rudis) were planted in pots containing Redi-Earth® planting medium (Scotts Company, 14111 Scottslawn Road, Marysville, Ohio 43041) comprising spaghnum peat moss, vermiculite, wetting agent and starter nutrients were treated with postemergence applications of test chemicals formulated in the same manner. Plants ranged in height from 2 to 18 cm for postemergence treatments (1- to 4-leaf stage). Treated plants and controls were maintained in a greenhouse for 14 to 21 days, after which time all species were compared to controls and visually evaluated. Plant response ratings, summarized in Table E, are based on a scale of 0 to 100 where 0 is no effect and 100 is complete control. A dash (-) response means no test result.

[3] = test system: sandbur; assay: Test E preemergence; type: in vivo, Cenchrus echinatus; settings: for Sandbur plant response rating: scale 0 to 100 (0 no effect, 100 complete control)
Text: as §2, §3

[4] = test system: large (Lg) crabgrass; assay: Test E preemergence; type: in vivo, Digitaria sanguinalis; settings: for Crabgrass, Large plant response rating: scale 0 to 100 (0 no effect, 100 complete control)
Text: as §2, §3

[5] = test system: sedge, umbrella; assay: Test C flooded paddy test; type: in vivo, Cyperus difformis; settings: Flood, scale 0 to 100 (0 no effect, 100 complete control), 13 to 15 days
Outline: (§4)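 Greenhouse pots flooded to 3 cm above soil at time of treatment received compound via the water, which stayed at that level.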

[6] = test system: fall panicum; assay: Test E preemergence; type: in vivo, Panicum dichotomiflorum; settings: for Panicum, Fall plant response rating: scale 0 to 100 (0 no effect, 100 complete control)
Outline: as §1

[7] = test system: palmer pigweed; assay: Test E preemergence; type: in vivo, Amaranthus palmeri; settings: for Pigweed, Palmer plant response rating: scale 0 to 100 (0 no effect, 100 complete control)
Outline: as §1

[8] = test system: arrowleaf sida; assay: Test E preemergence; type: in vivo, Sida rhombifolia; settings: preemergence; for Arrowleaf Sida plant response rating: scale 0 to 100 (0 no effect, 100 complete control)
Text: as §2, §3

[9] = test system: barnyardgrass; assay: Test C flooded paddy test; type: in vivo, Echinochloa crus-galli; settings: Flood, scale 0 to 100 (0 no effect, 100 complete control), 13 to 15 days
Outline: as §4

[10] = test system: kochia; assay: Test E preemergence; type: in vivo, Kochia scoparia; settings: for Kochia plant response rating: scale 0 to 100 (0 no effect, 100 complete control)
Outline: as §1

[11] = 125 g ai/ha, scale 0 to 100, 0 no effect, 100 complete control

Compound: Fc1cnc(Oc2cccc(C(F)F)c2-n2cc(C(F)(F)F)cn2)nc1 [Compound 164]
- Johnsongrass plant response rating ([1]; 31 g ai/ha): 0
- Johnsongrass plant response rating ([1]; 62 g ai/ha): 10
- Plant response rating, Johnsongrass [1, 11]: 70
- Lambsquarters plant response rating ([2]; 31 g ai/ha): 75
- Lambsquarters plant response rating ([2]; 62 g ai/ha): 98
- Plant response rating, Lambsquarters [2, 11]: 100
- Sandbur plant response rating ([3]; 31 g ai/ha): 0
- Sandbur plant response rating ([3]; 62 g ai/ha): 0
- Plant response rating, Sandbur [3, 11]: 10
- Crabgrass, Large plant response rating ([4]; 16 g ai/ha): 35
- Crabgrass, Large plant response rating ([4]; 31 g ai/ha): 35
- Crabgrass, Large plant response rating ([4]; 62 g ai/ha): 75
- Plant response rating, Crabgrass, Large [4, 11]: 100
- Plant response rating, Sedge, Umbrella ([5]; 31 g ai/ha): 0
- Plant response rating, Sedge, Umbrella ([5]; 62 g ai/ha): 20
- Plant response rating, Sedge, Umbrella ([5]; 125 g ai/ha): 75
- Plant response rating, Sedge, Umbrella ([5]; 250 g ai/ha): 95
- Panicum, Fall plant response rating ([6]; 31 g ai/ha): 0
- Panicum, Fall plant response rating ([6]; 62 g ai/ha): 30
- Plant response rating, Panicum, Fall [6, 11]: 98
- Pigweed, Palmer plant response rating ([7]; 31 g ai/ha): 0
- Pigweed, Palmer plant response rating ([7]; 62 g ai/ha): 75
- Plant response rating, Pigweed, Palmer [7, 11]: 80
- Arrowleaf Sida plant response rating ([8]; 16 g ai/ha): 40
- Arrowleaf Sida plant response rating ([8]; 31 g ai/ha): 100
- Arrowleaf Sida plant response rating ([8]; 62 g ai/ha): 100
- Plant response rating, Arrowleaf Sida [8, 11]: 100
- Plant response rating, Barnyardgrass ([9]; 31 g ai/ha): 0
- Plant response rating, Barnyardgrass ([9]; 62 g ai/ha): 0
- Plant response rating, Barnyardgrass ([9]; 125 g ai/ha): 0
- Plant response rating, Barnyardgrass ([9]; 250 g ai/ha): 0
- Kochia plant response rating ([10]; 31 g ai/ha): 0
- Kochia plant response rating ([10]; 62 g ai/ha): 75
- Plant response rating, Kochia [10, 11]: 100
